Test results: patent publication US20210330611A1, “THERAPY FOR NEUROLOGICAL DISEASES/DISORDERS” (priority 2020, published 2021)
“And” between values parts separate entries of the source, which are not always exact repeats. Identical values can stand only once. Counter-ions that a name gives are not always drawn. Like-named read-outs stand apart in the source and are kept apart here.

Legend:
[1] = tested on: fibrin-induced microglia activation; test: Image-based assay of fibrin-induced microglia activation (HTS and dose response); assay type: cell-based, rat; conditions: for inhibition at 10 µM: Rattus norvegicus, Microglia, read-out: Fibrin % inhibition
primary rat microglia [2] = tested on: primary rat microglia;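 on Fibrin % cell toxicity: share of dead cells sized under 150 µm2 at 10 µM in fibrin-stimulated microglia HTS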
[3] = tested on: LPS-induced microglia activation; test: Image-based assay of LPS-induced microglia activation (HTS and dose response); assay type: cell-based, rat
primary rat microglia [4] = tested on: primary rat microglia; remark: listed apart in the source;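 on Fibrin % cell toxicity: share of dead cells sized under 150 µm2 at 10 µM in fibrin-stimulated microglia HTS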
[5] = tested on: fibrin- and LPS-induced microglia activation; test: cells; assay type: cell-based, rat; conditions: for inhibition at 10 µM: Rattus norvegicus, Microglia
[6] = primary microglia HTS, fibrin stimulation, increased cell size (>800 μm^2) as marker of activation
[7] = Rattus norvegicus, Microglia, 48 h, primary microglia HTS, LPS stimulation; increased cell size (>800 μm^2) as marker of activation; read-out: LPS % inhibition
[8] = quadrant by fibrin and LPS inhibition in HTS of 1907 compounds
[9] = classification by fibrin and LPS inhibition, HTS at 10 μM
[10] = Rattus norvegicus, Microglia, 48 h, read-out: LPS % inhibition
[11] = Rattus norvegicus, Microglia, read-out: LPS % inhibition

| Molecule | Fibrin % cell toxicity (primary rat microglia [2]; rat) | LPS % cell toxicity (primary rat microglia [4]; rat) | Quadrant (FIG. 5b) [5] | also measured |
| --- | --- | --- | --- | --- |
| COc1cc2nc(N3CCN(C(=O)c4ccco4)CC3)nc(N)c2cc1OC [Prazosin] | 3% | 77% |  | inhibition at 10 µM [1, 6]: 43%; inhibition at 10 µM [3, 7]: 118% |
| CC(=O)[O-].[Hg+][c]1ccccc1 [Phenylmercuric Acetate] | 82% | 80% |  |  |
| C[C@@H]1C[C@H]2[C@@H]3CCC4=CC(=O)C=C[C@]4(C)[C@@]3(F)[C@@H](O)C[C@]2(C)[C@@]1(O)C(=O)COP(=O)(O)O [Dexamethasone sodium phosphate, reference compound] | 2% | 3% | Q2 | inhibition at 10 µM ([5]; read-out: Cherry-picked Hit (Suppl. Table 7)): > 50%; inhibition at 10 µM ([5]; read-out: Hit): > 50% |
| CN[C@H]1CC[C@@H](c2ccc(Cl)c(Cl)c2)c2ccccc21 [Sertraline] | 1% | 0% | Q4 |  |
| C[C@@H]1O[C@@H](O[C@H]2C[C@@H](O)[C@]3(CO)[C@H]4[C@H](O)C[C@]5(C)[C@@H](C6=CC(=O)OC6)CC[C@]5(O)[C@@H]4CC[C@]3(O)C2)[C@H](O)[C@H](O)[C@H]1O [Ouabain] | 0% | 0% |  | Quadrant (FIG. 5b) [5, 8]: Q4 |
| Betamethasone sodium phosphate [reference compound] |  |  | Q2 | Fibrin % cell toxicity (primary rat microglia [2]): 2%; LPS % cell toxicity (primary rat microglia [4]): 3%; Cherry-picked Hit (Suppl. Table 7) [5]: HIT (key: HIT: Hits were defined as molecules that exhibited greater than 50% inhibition of either fibrin or LPS activation); Hit [5]: HIT (key: HIT: Hits were defined as molecules that exhibited greater than 50% inhibition of either fibrin or LPS activation) |
| C#C[C@]1(O)CC[C@H]2[C@@H]3CCC4=CC(=O)CC[C@@H]4[C@H]3CC[C@@]21C [Norethindrone] | 0% |  | Q4 | inhibition at 10 µM [1]: 9%; LPS % inhibition [3]: 15% |
| CC(C)OC(=O)C(C)(C)Oc1ccc(C(=O)c2ccc(Cl)cc2)cc1 [Fenofibrate] | 1% | 0% |  | Quadrant (FIG. 5b) [5, 9]: Q4 |
| O=C(CCCCCCC(=O)Nc1ccccc1)NO [Vorinostat] | 89% | 50% |  | Quadrant (FIG. 5b) ([5]; quadrant by fibrin and LPS inhibition, HTS at 10 μM): Q2 |
| CCOc1cc(NC(C)=O)ccc1C(=O)OC [Ethopabate] | 0% | 0% | Q4 |  |
| Clc1ccc(CSC(Cn2ccnc2)c2ccc(Cl)cc2Cl)cc1 (stereo not shown) [Sulconazole] | 1% | 1% | Q4 |  |
| CCN(CC)CCOC(=O)C1(C2CCCCC2)CCCCC1 [Dicyclomine] | 0% | 0% | Q4 |  |
| Clc1ccc(CO/N=C(\Cn2ccnc2)c2ccc(Cl)cc2Cl)c(Cl)c1 [Oxiconazole] | 1% | 1% | Q4 |  |
| CC(C)Cn1cnc2c(N)nc3ccccc3c21 [Imiquimod] | 0% | 0% | Q4 |  |
| C(=C\c1ccccc1)/CN1CCN(C(c2ccccc2)c2ccccc2)CC1 [Cinnarizine] | 1% | 0% | Q4 |  |
| O=c1[nH]c(=O)n([C@H]2C[C@H](O)[C@@H](CO)O2)cc1F [Floxuridine] | 1% | 0% |  | Quadrant (FIG. 5b) [5, 8]: Q4 |
| NC(=O)C(c1ccccc1)(c1ccccc1)[C@@H]1CCN(CCc2ccc3c(c2)CCO3)C1 [Darifenacin Hydrobromide] | 1% | 0% |  |  |
| Cc1ccccc1C(OCCN(C)C)c1ccccc1 (stereo not shown) [Orphenadrine] | 0% | 0% | Q4 |  |

| Molecule | Fibrin % cell toxicity (primary rat microglia [2]; rat) | LPS % cell toxicity (primary rat microglia [4]; rat) | Quadrant (FIG. 5b) [5] | also measured |
| --- | --- | --- | --- | --- |
| Cinnarazine |  |  | Q4 | Fibrin % cell toxicity (primary rat microglia [2]): 1%; LPS % cell toxicity (primary rat microglia [4]): 0% |
| CN(C)CCN(Cc1cccs1)c1ccccn1 [Methapyrilene] | 1% | 0% | Q4 |  |
| O=C(O)c1ccccc1O [Salicylic Acid] | 0% |  |  | inhibition at 10 µM ([1]; primary microglia HTS, fibrin stimulation, cell size >800 μm2 as marker of activation): -32%; inhibition at 10 µM ([3]; Rattus norvegicus, Microglia, 48 h; read-out: LPS % inhibition): 14%; Quadrant (FIG. 5b) ([5]; classification by fibrin and LPS inhibition in HTS): Q4 |
| CC1(C)NC(=O)N(c2ccc([N+](=O)[O-])c(C(F)(F)F)c2)C1=O [Nilutamide] | 1% | 0% |  | Quadrant (FIG. 5b) [5, 8]: Q4 |
| N[C@@H](Cc1cc(I)c(Oc2ccc(O)c(I)c2)c(I)c1)C(=O)O [Liothyronine] | 1% | 1% | Q4 | inhibition at 10 µM [3, 10]: 21% |
| CC(=O)Nc1ccc(O)cc1 [Acetaminophen] | 0% | 0% |  | inhibition at 10 µM [1]: 14%; inhibition at 10 µM [3, 11]: 22% |
| C=C1CC[C@H](O)C/C1=C/C=C1\CCC[C@]2(C)[C@@H]([C@H](C)CCCC(C)C)CC[C@@H]12 [Cholecalciferol] | 1% | 0% |  | Fibrin % inhibition ([1]; primary HTS, 10 μM, fibrin-stimulated primary microglia): −10% and −17%; Quadrant (FIG. 5b) ([5]; primary HTS, 10 μM): Q4 |
| CN1C2CCCC1CC(NC(=O)c1nn(C)c3ccccc13)C2 (stereo not shown) [Granisetron] | 1% | 0% |  | Quadrant (FIG. 5b) [5, 8]: Q4 |
| Clc1ccccc1CN1CCc2sccc2C1 [Ticlopidine] | 1% | 0% |  | inhibition at 10 µM [1]: -13%; inhibition at 10 µM [3, 11]: 22% |
| CCC1(c2ccccc2)C(=O)NCNC1=O [Primidone] | 1% |  | Q4 | inhibition at 10 µM [1]: -15%; inhibition at 10 µM [3, 10]: 12% |
| CCCCCCCCCCCCCCCC[n+]1ccccc1 [Cetylpyridinium Bromide] | 25% | 39% | Q2 |  |
| CS(=O)(=O)CCNCc1ccc(-c2ccc3ncnc(Nc4ccc(OCc5cccc(F)c5)c(Cl)c4)c3c2)o1 [Lapatinib] | 1% | 0% |  | Quadrant (FIG. 5b) [5, 8]: Q4 |
| CN(C)CCCN1c2ccccc2CCc2ccccc21 [Imipramine] | 0% | 1% |  | inhibition at 10 µM [1, 6]: -4%; inhibition at 10 µM [3, 7]: 60% |
| Pyrethrins |  |  |  | Fibrin % cell toxicity (primary rat microglia [2]): 0%; LPS % cell toxicity (primary rat microglia [4]): 0% |
| CN1C2CCCC1CC(NC(=O)c1nn(C)c3ccccc13)C2 (stereo not shown) [Granisetron Hydrochloride] | 0% | 0% |  | Quadrant (FIG. 5b) [5, 8]: Q4 |
| CN(C)CCC=C1c2ccccc2COc2ccccc21 [Doxepin] | 1% | 0% | Q4 | LPS % inhibition ([3]; 10 µM): 13%; inhibition at 10 µM [3, 11]: 16% |
| Cn1c(=O)c2c(ncn2CC2OCCO2)n(C)c1=O [Doxofylline] | 0% |  |  | inhibition at 10 µM ([1]; primary microglia HTS, fibrin stimulation, compounds at 10 μM): -42%; inhibition at 10 µM ([3]; Rattus norvegicus, Microglia, primary microglia HTS, LPS stimulation, compounds at 10 μM; read-out: LPS % inhibition): 18%; Quadrant (FIG. 5b) [5, 9]: Q4 |
| C[C@@H]1C[C@H]2[C@@H]3CCC4=CC(=O)C=C[C@]4(C)[C@@]3(F)[C@@H](O)C[C@]2(C)[C@@]1(O)C(=O)COP(=O)(O)O [Dexamethasone Phosphate] | 5% | 2% |  | Quadrant (FIG. 5b) [5, 8]: Q2 |
